Data reported in patent publication US20250376498A1, “FUSION PROTEINS COMPRISING AN IMPROVED GLP-1 RECEPTOR AGONIST AND USES THEREOF” (Guangzhou Innogen Pharmaceutical Group Co., Ltd., priority 2022, published 2025).
Entries after “also recorded” stand apart in the source; their conditions may differ.

Tests used:
SH-SY5Y neuronal cells [1] = test: Apoptosis in TNF-α-induced SH-SY5Y cells (Annexin V-FITC/PI flow cytometry); assay type: cell-based; details: 60 ng/ml TNF-α, 48 hours; YN-011 10, 100, 500 nM; GABA 1, 10, 100 μM; combination 100 μM GABA + 100 nM YN-011
Experimental: Digest the SH-SY5Y neuronal cells in a 10 cm culture dish using 0.25% trypsin to prepare a single-cell suspension. Seed the single-cell suspension into a 12-well plate. Place the culture plate in a CO2 incubator and pre-culture overnight at 37° C. with 5% CO2 to allow the cells to adhere. Using medium containing 5% FBS, treat the cells in each well with 60 ng/ml TNF-α alone or co-treated with 10, 100, or 500 nM YN-011 at 37° C. for 48 hours. Each drug treatment is performed in three replicate wells. Collect the cells and digest the cells with 0.25% trypsin without EDTA for 1 minute. Transfer the cell suspension to a 1.5 ml EP tube, centrifuge at 1000 rpm for 5 minutes, and pellet the cells at the bottom of the tube. Resuspend […] in 100 μl Binding Buffer, add 5 μl of PI and 5 μl of Annexin V-FITC solution, and incubate at room temperature in the dark for 15 minutes. Add 400 μl of Binding Buffer to each tube, and detect using a flow cytometer (Annexin V-FITC excitation wavelength: 488 nm, emission wavelength:
520 nm; PI excitation wavelength: 535 nm, emission wavelength: 617 nm). Count the number of Annexin V-FITC positive cells and PI negative cells in each sample.
Please refer to section 8.14 for the experimental procedure, but the drug treatment in this experiment is different from that in section 8.14. […]

SH-SY5Y neuronal cells [2] = test: TNF-α-induced apoptosis in SH-SY5Y cells (western blot Bcl-2, cleaved-caspase3); assay type: cell-based; details: 60 ng/ml TNF-α, 48 hours; YN-011 10, 100, 500 nM; GABA 1, 10, 100 μM; combination 100 μM GABA + 100 nM YN-011
Experimental: The experimental procedure is as follows: • 1) Digest SH-SY5Y neuronal cells in a 10 cm culture dish using 0.25% trypsin and seed them into a 12-well plate. • 2) Place the culture plate in a CO2 incubator for overnight pre-culture (37° C., 5% CO2) to allow cell adhesion. • 3) Using medium containing 5% FBS, treat the cells in each well with 60 ng/ml TNF-α alone or co-treated with 10, 100, or 500 nM YN-011. Incubate the cells at 37° C. for 48 hours. Each drug treatment is performed in three replicate wells. • 4) After 48 hours, discard the supernatant, gently wash the cells once with PBS, and place the cell culture plate on ice. Add 120 μl of RIPA cell lysis buffer (Beyotime P0013B) to each well, including protease and phosphatase inhibitors, and lyse the cells for 15 minutes. • 5) Transfer the cell lysate to a 1.5 ml EP tube and centrifuge at 14,000 rpm for 30 minutes. • 6) Carefully aspirate the supernatant into a new EP tube, add 5× loading buffer containing β-mercaptoethanol, and boil the samples at 100° C. for 10 minutes to denature the proteins. • 7) Perform SDS-PAGE gel electrophoresis with 10 μg of protein loaded per lane. Position the gel vertically against the power rack in the electrophoresis tank, ensuring that the concave side of the gel faces the power rack. Two gels can share one power rack. Fix the gel and power rack in the electrophoresis tank as required. […]

Molecule: NCCCC(=O)O [GABA, γ-aminobutyric acid]
- apoptosis in TNF-α-induced neuronal cells (Annexin V-FITC positive, PI negative cells) (SH-SY5Y neuronal cells [1]): reduces apoptosis; also recorded: reduction of apoptosis
- TNF-α-induced apoptosis in SH-SY5Y neuronal cells (western blot) (SH-SY5Y neuronal cells [2]): reduces TNF-α-induced apoptosis; also recorded: reduction of TNF-α-induced apoptosis

B1: YN-011: GLP-1 fusion protein of SEQ ID NO: 7: GLP-1 (A8G, G22E, R36G), linker peptide and IgG2/Fc domain (C222S, A330S, P331S) (protein)
chain: HGEGTFTSDVSSYLEEQAAKEFIAWLVKGGGSSGAPPPSGGGGSERKSCVECPPCPAPPVAGPSVFLFPPKPKDTLMISRTPEVTCVVVDVSHEDPEVQFNWYVDGVEVHNAKTKPREEQFNSTFRVVSVLTVVHQDWLNGKEYKCKVSNKGLPSSIEKTISKTKGQPREPQVYTLPPSREEMTKNQVSLTCLVKGFYPSDIAVEWESNGQPENNYKTTPPMLDSDGSFFLYSKLTVDKSRWQQGNVFSCSVMHEALHNHYTQKSLSLSPG
- apoptosis in TNF-α-induced neuronal cells (Annexin V-FITC positive, PI negative cells) (SH-SY5Y neuronal cells [1]): significantly reduces apoptosis; also recorded: reduction of apoptosis
- TNF-α-induced apoptosis in SH-SY5Y neuronal cells (western blot) (SH-SY5Y neuronal cells [2]): significantly reduces TNF-α-induced apoptosis; also recorded: reduction of TNF-α-induced apoptosis
